Each compound was assayed against T1, human ERK-2 (Mitogen Activated Kinase 1) (Homo sapiens, UniProt P28482) (assay: ERK-2 Enzymatic Assay). Details: ERK-2 enzymatic assay; read-out: IC50.
T1 construct: n-terminal 6-His fusion protein in E. coli and corresponding to aa 8-360; 6-His (N); made in house; host or cells: E. coli
Type: biochemical
From the text: Table 1 contains representative data for Examples disclosed herein.

T1 sequence (P28482 8-360): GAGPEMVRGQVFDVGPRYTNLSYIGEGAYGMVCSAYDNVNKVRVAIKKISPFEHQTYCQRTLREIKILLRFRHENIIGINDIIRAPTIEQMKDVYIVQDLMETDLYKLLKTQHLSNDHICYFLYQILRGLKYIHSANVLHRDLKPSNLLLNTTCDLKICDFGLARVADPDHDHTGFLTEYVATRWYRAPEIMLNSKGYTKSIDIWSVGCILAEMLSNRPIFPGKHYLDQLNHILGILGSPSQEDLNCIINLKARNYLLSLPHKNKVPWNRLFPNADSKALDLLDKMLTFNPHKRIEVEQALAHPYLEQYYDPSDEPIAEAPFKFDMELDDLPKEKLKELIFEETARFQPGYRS

IC50, < 0.1 µM:
COCCN1C[C@H](c2ccc(F)cc2)[C@@H](n2nnc3cc(-c4ccnc(Nc5ccnn5C)n4)ccc32)C1 [Example 83, 4-(1-((3R,4S)-4-(4-fluorophenyl)-1-(2-methoxyethyl)pyrrolidin-3-yl)-1H-benzo[d][1,2,3]triazol-5-yl)-N-(1-methyl-1H-pyrazol-5-yl)pyrimidin-2-amine]
COCCN1C[C@@H](n2nnc3cc(-c4ccnc(Nc5ccnn5C)n4)ccc32)[C@H](c2ccc(F)cc2)C1 [Example 87, 4-(1-((3S,4R)-4-(4-fluorophenyl)-1-(2-methoxyethyl)pyrrolidin-3-yl)-1H-benzo[d][1,2,3]triazol-5-yl)-N-(1-methyl-1H-pyrazol-5-yl)pyrimidin-2-amine]
COc1cccc(F)c1CN1CC(n2nnc3cc(-c4ccnc(Nc5ccnn5C)n4)ccc32)C1 [Example 88, 4-(1-(1-(2-fluoro-6-methoxybenzyl)azetidin-3-yl)-1H-benzo[d][1,2,3]triazol-5-yl)-N-(1-methyl-1H-pyrazol-5-yl)pyrimidin-2-amine]
Cn1nccc1Nc1nccc(-c2ccc3c(c2)nnn3C2CNCCC2c2cccc(F)c2)n1 (centres unmarked) [Example 89, 4-(1-(4-(3-fluorophenyl)piperidin-3-yl)-1H-benzoyl[d][1,2,3]triazol-5-yl)-N-(1-methyl-1H-pyrazol-5-yl)pyrimidin-2-amine]
Cn1nccc1Nc1nccc(-c2ccc3c(c2)nnn3C2CNCCC2c2ccc(F)cc2)n1 (centres unmarked) [Example 90, 4-(1-(4-(4-fluorophenyl)piperidin-3-yl)-1H-benzo[d][1,2,3]triazol-5-yl)-N-(1-methyl-1H-pyrazol-5-yl)pyrimidin-2-amine]
CN(C)CC(c1ccc(Cl)c(F)c1)n1nnc2cc(-c3ccnc(Nc4ccnn4C)n3)ccc21 (centres unmarked) [Example 91, 4-(1-(1-(4-chloro-3-fluorophenyl)-2-(dimethylamino)ethyl)-1H-benzo[d][1,2,3]triazol-5-yl)-N-(1-methyl-1H-pyrazol-5-yl)pyrimidin-2-amine]
Cn1nccc1Nc1nccc(-c2ccc3c(c2)nnn3C(CN2CCCC2)c2ccc(Cl)c(F)c2)n1 (centres unmarked) [Example 92, 4-(1-(1-(4-chloro-3-fluorophenyl)-2-(pyrrolidin-1-yl)ethyl)-1H-benzo[d][1,2,3]triazol-5-yl)-N-(1-methyl-1H-pyrazol-5-yl)pyrimidin-2-amine]
Cn1nccc1Nc1nccc(-c2ccc3c(c2)nnn3[C@H](CO)c2ccc(Cl)c(F)c2)n1 [Example 93, (S)-2-(4-chloro-3-fluorophenyl)-2-(5-(2-((1-methyl-1H--pyrazol-5-yl)amino)pyrimidin-4-yl)-1H-benzo[d][1,2,3]triazol-1-yl)ethanol]
Cn1nccc1Nc1nccc(-c2ccc3c(c2)nnn3[C@@H](CO)c2ccc(Cl)c(F)c2)n1 [Example 94, (R)-2-(4-chloro-3-fluorophenyl)-2-(5-(2-((1-methyl-1H-pyrazol-5-yl)amino)pyrimidin-4-yl)-1H-benzo[d][1,2,3]triazol-1-yl)ethanol]
COc1ccc([C@@H](CO)n2nnc3cc(-c4ccnc(Nc5ccnn5C)n4)ccc32)cc1F [Example 95, (S)-2-(3-fluoro-4-methoxyphenyl)-2-(5-(2-((1-methyl-1H-pyrazol-5-yl)amino)pyrimidin-4-yl)-1H-benzo[d][1,2,3]triazol-1-yl)ethanol]
CCC(C)Cn1nnc2cc(-c3ccnc(Nc4cnn(C)c4)n3)ccc21 (centres unmarked) [Example 96, N-(1-methyl-1H-pyrazol-4-yl)-4-(1-(2-methylbutyl)-1H-benzo[d][1,2,3]triazol-5-yl)pyrimidin-2-amine]
CC(C)Cn1nnc2cc(-c3ccnc(Nc4cnn(C)c4)n3)ccc21 [Example 97, 4-(1-isobutyl-1H-benzo[d][1,2,3]triazol-5-yl)-N-(1-methyl-1H-pyrazol-4-yl)pyrimidin-2-amine]
CCC(C)Cn1nnc2cc(-c3ccnc(N[C@@H](C)CO)n3)ccc21 (stereo partly drawn) [Example 98, (2S)2-((4-(1-(2-methylbutyl)-1H-benzo[d][1,2,3]triazol-5-yl)pyrimidin-2-yl)amino)propan-1-ol]
CC(C)Cn1nnc2cc(-c3ccnc(Nc4cnn(C)n4)n3)ccc21 [Example 99, 4-(1-isobutyl-1H-benzo[d][1,2,3]triazol-5-yl)-N-(2-methyl-2H-1,2,3-triazol-4-yl)pyrimidin-2-amine]
CCC(C)Cn1nnc2cc(-c3ccnc(Nc4cnn(C)n4)n3)ccc21 (centres unmarked) [Example 100, N-(2-methyl-2H-1,2,3-triazol-4-yl)-4-(1-(2-methylbutyl)-1H-benzo[d][1,2,3]triazol-5-yl)pyrimidin-2-amine]
Cn1nccc1Nc1nccc(-c2ccc3c(c2)nnn3CC2CCCCO2)n1 (centres unmarked) [Example 101, N-(1-methyl-1H-pyrazol-5-yl)-4-(1-((tetrahydro-2H-pyran-2-yl)methyl)-1H-benzoyl[d][1,2,3]triazol-5-yl)pyrimidin-2-amine]
CC(C)OCCCn1nnc2cc(-c3ccnc(Nc4ccnn4C)n3)ccc21 [Example 102, 4-(1-(3-isopropoxypropyl)-1H-benzo[d][1,2,3]triazol-5-yl)-N-(1-methyl-1H-pyrazol-5-yl)pyrimidin-2-amine]
Cc1cnn(CCn2nnc3cc(-c4ccnc(Nc5ccnn5C)n4)ccc32)c1 [Example 103, 4-(1-(2-(4-methyl-1H-pyrazol-1-yl)ethyl)-1H-benzo[d][1,2,3]triazol-5-yl)-N-(1-methyl-1H-pyrazol-5-yl)pyrimidin-2-amine]
COc1cccc(F)c1CN1CCC[C@@H](n2nnc3cc(-c4ccnc(Nc5ccnn5C)n4)ccc32)C1 [Example 105, (R)-4-(1-(1-(2-fluoro-6-methoxybenzyl)piperidin-3-yl)-1H-benzo[d][1,2,3]triazol-5-yl)-N-(1-methyl-1H-pyrazol-5-yl)pyrimidin-2-amine]
COc1cccc(F)c1CN1C[C@H](n2nnc3cc(-c4ccnc(Nc5ccnn5C)n4)ccc32)CC(F)(F)C1 [Example 106, (R)-4-(1-(5,5-difluoro-1-(2-fluoro-6-methoxybenzyl)piperidin-3-yl)-1H-benzo[d][1,2,3]triazol-5-yl)-N-(1-methyl-1H-pyrazol-5-yl)pyrimidin-2-amine]
Fc1cccc(Cn2nnc3cc(-c4ccnc(NC5CCOCC5)n4)ccc32)c1 [Example 107, 4-(1-(3-fluorobenzyl)-1H-benzo[d][1,2,3]triazol-5-yl)-N-(tetrahydro-2H-pyran-4-yl)pyrimidin-2-amine]
Cn1nccc1Nc1nccc(-c2ccc3c(c2)nnn3Cc2ccc(Cl)c(F)c2)n1 [Example 108, 4-(1-(4-chloro-3-fluorobenzyl)-1H-benzo[d][1,2,3]triazol-5-yl)-N-(1-methyl-1H-pyrazol-5-yl)pyrimidin-2-amine]
Fc1cc(Cn2nnc3cc(-c4ccnc(NC5CCOCC5)n4)ccc32)ccc1Cl [Example 109, 4-(1-(4-chloro-3-fluorobenzyl)-1H-benzo[d][1,2,3]triazol-5-yl)-N-(tetrahydro-2H-pyran-4-yl)pyrimidin-2-amine]

Reference: patent US9763942B2, “Serine/threonine kinase inhibitors” (Array BioPharma Inc., priority 2013, dated 2017)
